# Measured values taken from US20250333419A1, “BICYCLIC COMPOUNDS AS INHIBITORS OF WRN” (Incyte Corporation, priority 2023, published 2025).
# Key:
# WRN [1] = molecular target: T1, WRN (Homo sapiens, UniProt Q14191); experiment: WRN Helicase activity assay (fluorescence DNA unwinding); type: biochemical; conditions: IC50, 1-hr pre-incubation with enzyme; geometric means of at least 2 independent replicates
# T1 construct: A His-tagged construct of WRN (AA S2-S1235) was produced and used for the ATPase assay; His; made in house; host or cells: Sf9 insect cells (baculovirus)
# T1 sequence (Q14191 2-1235): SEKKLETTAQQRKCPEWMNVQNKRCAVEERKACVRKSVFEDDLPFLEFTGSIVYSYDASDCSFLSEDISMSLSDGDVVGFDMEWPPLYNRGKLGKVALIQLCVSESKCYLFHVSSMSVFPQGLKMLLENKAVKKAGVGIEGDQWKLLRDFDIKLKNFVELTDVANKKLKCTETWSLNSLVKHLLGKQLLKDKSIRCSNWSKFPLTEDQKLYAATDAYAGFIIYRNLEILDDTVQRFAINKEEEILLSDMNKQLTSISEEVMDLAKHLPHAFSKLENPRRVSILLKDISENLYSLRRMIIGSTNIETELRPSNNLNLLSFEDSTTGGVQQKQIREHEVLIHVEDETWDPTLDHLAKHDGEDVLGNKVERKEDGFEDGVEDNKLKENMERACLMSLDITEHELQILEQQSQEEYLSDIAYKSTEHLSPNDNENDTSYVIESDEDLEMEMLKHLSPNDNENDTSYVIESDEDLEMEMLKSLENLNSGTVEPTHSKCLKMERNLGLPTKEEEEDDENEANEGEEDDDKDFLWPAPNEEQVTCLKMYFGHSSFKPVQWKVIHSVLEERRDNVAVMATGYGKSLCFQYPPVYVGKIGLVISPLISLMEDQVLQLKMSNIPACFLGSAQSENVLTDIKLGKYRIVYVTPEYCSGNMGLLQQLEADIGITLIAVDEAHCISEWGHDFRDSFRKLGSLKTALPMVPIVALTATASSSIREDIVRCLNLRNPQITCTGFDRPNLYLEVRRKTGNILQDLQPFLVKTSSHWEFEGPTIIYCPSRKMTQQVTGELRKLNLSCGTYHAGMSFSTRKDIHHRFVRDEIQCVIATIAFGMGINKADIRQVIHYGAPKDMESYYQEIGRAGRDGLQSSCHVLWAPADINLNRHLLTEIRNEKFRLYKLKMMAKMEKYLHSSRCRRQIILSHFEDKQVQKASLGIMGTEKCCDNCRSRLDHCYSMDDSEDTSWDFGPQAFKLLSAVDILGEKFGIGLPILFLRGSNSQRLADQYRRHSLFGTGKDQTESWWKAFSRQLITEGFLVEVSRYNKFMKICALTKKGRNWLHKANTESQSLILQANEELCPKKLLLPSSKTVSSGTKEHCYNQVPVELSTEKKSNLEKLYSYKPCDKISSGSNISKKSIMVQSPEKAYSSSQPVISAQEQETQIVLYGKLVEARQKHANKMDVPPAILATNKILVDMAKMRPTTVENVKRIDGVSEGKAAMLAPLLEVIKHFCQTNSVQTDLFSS
# Experimental: Compounds of the examples were tested for WRN helicase activity. DNA encoding the target protein, 6×HIS-TEV-WRN-517-945, was produced, cloned and transfected as detailed in Example D. To determine the inhibitory properties of the compounds, a 384 wells plate-based Helicase assay was set up to measure the extent of DNA unwinding (Helicase) activity of WRN. The WRN Helicase assay was designed to measure increase in fluorescence signal using a fluorescence based, donor-quencher paired forked dsDNA oligomer substrate (custom synthesis from Sigma-Aldrich) prepared by annealing equal amounts of oligo GPat-1 ([BHQ2][…]) and oligo GPat-2 ([…][TAM]). Continuous measurement of fluorescent signal was used to optimize the buffer conditions, concentration of enzyme (WRN), concentration of substrates (ATP & dsDNA), and the linearity of the Helicase reaction. All solutions were prepared in the following assay buffer: 50 mM Tris-HCl, pH-7.5, 2 mM MgCl2, 50 mM NaCl, 1 mM EGTA, 0.01% P-20, 0.05% BSA, and 2 mM DTT prepared with nuclease free water.
# A serial dilution (1:3 scheme) of the compounds was prepared in neat DMSO and 100 nL of the compounds was dispensed in the Greiner black low volume (Greiner #784076) 384 wells assay plate. An 1-hr pre-incubation of the compounds with enzyme was included. A His-tagged construct of WRN (AA S2-S1235) was produced and used for the ATPase assay. Maximum inhibition control wells were set up with the addition of only assay buffer, and no inhibition control wells were set up with neat DMSO without test compounds. The reaction was initiated by addition of 5 μL substrate mix (200 μM ultrapure ATP, and 50 nM dsDNA prepared in assay buffer) and incubated at 25° C. for 35 min. A typical Helicase reaction consists of 25 nM forked dsDNA, 100 μM ATP, and 1 nM WRN prepared in assay buffer. The WRN Helicase reaction was quenched by the addition of 5 μL ‘STOP’ solution containing 100 mM EDTA (final EDTA concentration 33.33 mM) prepared in assay buffer. The plates were read on BMG PHERAstar FSX using 540/590 module to measure an increase of fluorescence. Data analysis was carried out using the Genedata software following % of control normalization. Fitting parameters include dose response IC50, Hill slope (n), maximum inhibition (S∞), and minimum inhibition (S0). The reported IC50 values for compounds in this invention are the geometric means of at least 2 independent replicates.
# WRN helicase [2] = experiment: Intact mass spectrometry and peptide mapping of covalent modification; type: binding
# Experimental: The intact WRN helicase has an observed mass of 67,573.1 Da (theoretical mass of 67,409.4 Da). The WRN helicase incubated with the compound of Example 1 has an observed mass of 68,164.5 (theoretical mass of 1:1 adduct 68,000 Da). The shift in the observed mass between intact WRN and WRN incubated with the compound of Example 1 is equivalent to the theorectical mass of the compound of Example 1 (592.2 Da). […] The mass spectrometry results, combined with the ATPase assay results established that covalently targeting Cys727 is and effective and tractable way to inhibit both the ATPase and helicase activities of WRN.
# WRN helicase [3] = molecular target: T2, WRN helicase (Homo sapiens, UniProt Q14191); experiment: ATPase assay on WRN helicase (ADP-Glo) with varied preincubation times; type: biochemical
# T2 construct: His-tagged WRN construct used for biochemical characterization (aa S2-S1235); His; made in house; host or cells: Sf9 insect cells (baculovirus)
# T2 sequence (Q14191 2-1235): as above
# Experimental: An ATPase assay on WRN helicase was performed using ADP-Glo and IC50 values were determined by varying the compound of Example 1 preincubation times (FIG. 1). […] In FIG. 1, 0 hrs is represented by bottom dotted line; 1 hour is represented by the broken line with two bullets; 2 hrs is represented by solid line; and 4 hrs is represented by top dashed line.
# WRN Cys727Ser = molecular target: T3, WRN Cys727Ser (Homo sapiens, UniProt Q14191, C727S); experiment: ATPase assay on WRN Cys727Ser mutant, without preincubation; type: biochemical
# T3 construct: Point mutations were made in the His-tagged WRN construct used for biochemical characterization (aa S2-S1235); His; made in house
# T3 sequence (Q14191 2-1235 C727S): as the sequence (Q14191 2-1235) above, with C726S counted along it
# Experimental: (§1) Point mutations were made in the His-tagged WRN construct used for biochemical characterization (aa S2-S1235). Cysteine 580 (Walker A motif), 727 (linker), 864 (Domain 2 Å) and 1041 (RQC domain) were each mutated to both Serine and Alanine using site directed mutagenesis, for a total of eight mutants. Purified proteins were assayed in both helicase and ATPase assays. Cys580 mutation to either Ser or Ala abolished all activity, consistent with Walker A motif cysteine function. Cys864 (D2) mutation to alanine and Cys1041 (RQC domain) had no significant impact on helicase or ATPase activity. Cys727 abolished helicase activity (Table 6), whether it was mutated to Ala or Ser. ATPase activity for Cys727 mutants was reduced but not abolished (Table 7). Table 6 is the panel of the nine variant WRN helicase proteins that were screen using a flourscence-based DNA unwinding assay with an increase in flourscence intensity indicating DNA unwinding. Table 7 is the panel of the nine variant WRN helicase proteins that were screened using ADP-Glo assay to measure DNA stimulated ATPase activity, with an increase in luminescence indicating ATP hydrolysis.
# (§2) From FIG. 2, the top line represented WT. […] The mutant experiments were performed without preincubation.
# WRN [4] = molecular target: T1, WRN; experiment: WRN ATPase activity assay (ADP-Glo); type: biochemical; conditions: IC50, 1-hr pre-incubation with enzyme; geometric means of at least 2 independent replicates
# Experimental: Compounds of the Examples were tested for WRN ATPase activity. WRN ATPase activity catalyzes ATP hydrolysis to produce ADP and phosphate. DNA encoding the target protein, 6×HIS-TEV-WRN-517-945, was produced, cloned and transfected as detailed in Example D. The amount of ADP produced was measured using ADP-Glo™ Kinase Assay kit from Promega Corporation in a Greiner white regular volume 384 wells assay plate (Greiner #781075). Data was normalized to a standard curve generated using various ADP concentrations and the corresponding luminescent signal intensities at each concentration. The assay conditions were optimized for enzyme concentration (WRN), substrate concentrations (ATP & dsDNA), and the linearity of the ATPase reaction, in the following assay buffer: 50 mM Tris-HCl, pH-7.5, 2 mM MgCl2, 50 mM NaCl, 1 mM EGTA, 0.01% P-20, 0.05% BSA, and 2 mM DTT prepared with nuclease free water.
# A serial dilution (1:3 scheme) of the compounds were prepared in neat DMSO, with 100 nL of the compounds dispensed in the 384 wells assay plate. An 1-hr pre-incubation of the compounds with enzyme was included. A His-tagged construct of WRN (AA S2-S1235) was produced and used for the ATPase assay. Maximum inhibition control wells were set up with the addition of only assay buffer, and no inhibition control wells were set up with neat DMSO without test compounds. The reaction was initiated by addition of 5 μL substrate mix (200 μM ultrapure ATP, and 50 nM dsDNA prepared in assay buffer) and incubated at 25° C. for 35 min. A forked dsDNA oligomer substrate was prepared by annealing equal amounts of oligo GPat-1 ([BHQ2][…]) and oligo GPat-2 ([…][TAM]) and was used as dsDNA substrate for WRN ATPase assay. A typical ATPase reaction consists of 25 nM forked dsDNA, 100 μM ATP, and 1 nM WRN prepared in assay buffer. The WRN ATPase reaction was stopped by the addition of 5 μL of ADP-Glo Reagent from ADP-Glo™ Kinase Assay kit and incubated for 40 min to deplete the unreacted ATP. Afterwards, 5 μL of Kinase Detection Reagent from the ADP-Glo™ Kinase Assay kit was added and incubated for 1 hr for the development of luminescence signal.
# Luminesce signals were measured on BMG PHERAstar FSX using luminescence protocol. Data analysis was carried out using Genedata software following % of control normalization. Fitting parameters include dose response IC50, Hill slope (n), maximum inhibition (S∞), and minimum inhibition (S0). The reported IC50 values for compounds in this invention are the geometric means of at least 2 independent replicates.
# WRN Cys727Ala = molecular target: T4, WRN Cys727Ala (Homo sapiens, UniProt Q14191, C727A); experiment: ATPase assay on WRN Cys727Ala mutant, without preincubation; type: biochemical
# T4 construct: Point mutations were made in the His-tagged WRN construct used for biochemical characterization (aa S2-S1235); His; made in house
# T4 sequence (Q14191 2-1235 C727A): as the sequence (Q14191 2-1235) above, with C726A counted along it
# Experimental: as §1, §2
smiles,measurement,setting,value
"C=CC(=O)Nc1ccccc1-c1c(CC)n(CC(=O)Nc2ccc(C(F)(F)F)cc2)c2nc(C3=CCOCC3)nn2c1=O [Example 1, N-(2-(2-(3,6-Dihydro-2H-pyran-4-yl)-5-ethyl-7-oxo-4-(2-oxo-2-((4-(trifluoromethyl)phenyl)amino)ethyl)-4,7-dihydro-[1,2,4]triazolo[1,5-a]pyrimidin-6-yl)phenyl)acrylamide]",IC50,WRN [1],< 100 nM
same,adduct formation with WRN helicase,WRN helicase [2]; intact mass spectrometry,1:1 adduct
same,residue modified,WRN helicase [2]; peptide mapping analysis,Cys727 is the only residue to be modified
same,time dependence of inhibition,WRN helicase [3]; FIG. 1,inhibits WRN helicase in a time dependent manner
same,IC50,WRN helicase [3]; preincubation 1 hour,24 nM
same,IC50,WRN helicase [3]; preincubation 2 hrs,12 nM
same,IC50,WRN helicase [3]; preincubation 4 hrs,8 nM
same,IC50,WRN helicase [3]; without preincubation,449 nM
same,IC50,WRN Cys727Ser; Cys727Ser,38500 nM
same,fold shift relative to WT,WRN Cys727Ser; Cys727Ser vs WT,86 fold
same,IC50,WRN [4],< 100 nM
same,fold shift relative to WT,"WRN Cys727Ala; Cys727Ala vs WT, without preincubation",13 fold
same,IC50,"WRN Cys727Ala; Cys727Ala, without preincubation",5820 nM
same,effect of Cys 727 mutation on potency,"WRN Cys727Ala; FIG. 2, Cys727Ala and Cys727Ser",reduces the potency
